Measured values published in patent publication US20160221965A1, “DISUBSTITUTED TRIFLUOROMETHYL PYRIMIDINONES AND THEIR USE” (BAYER PHARMA AKTIENGESELLSCHAFT, priority 2013, published 2016).

How the values were obtained:
human CCR2 = target: T1, human CCR2 (Homo sapiens, UniProt P41597); assay: Functional Ca2+ release test (B-1); type: cell-based; settings: Chem-1 cell line transfected with human CCR2, inhibition of MCP-1 effect, MCP-1 at EC50 (about 5 nM), Fluo-4
T1 construct: host or cells: Chem-1 cell line
T1 sequence (P41597 1-360 isoform P41597-2): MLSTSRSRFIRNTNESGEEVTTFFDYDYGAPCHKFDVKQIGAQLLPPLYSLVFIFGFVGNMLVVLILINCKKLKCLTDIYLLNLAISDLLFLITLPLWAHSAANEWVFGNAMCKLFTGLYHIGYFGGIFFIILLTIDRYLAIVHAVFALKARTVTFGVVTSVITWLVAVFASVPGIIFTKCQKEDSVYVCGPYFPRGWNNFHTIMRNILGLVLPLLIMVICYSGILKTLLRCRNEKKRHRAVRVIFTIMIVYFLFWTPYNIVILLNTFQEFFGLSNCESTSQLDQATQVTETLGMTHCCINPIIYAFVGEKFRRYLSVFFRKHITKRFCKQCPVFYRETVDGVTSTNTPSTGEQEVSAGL
Experimental: The antagonistic action of test substances on CCR2 was determined in a functional Ca^2+ release test. Binding of CCL2/MCP-1 to CCR2 leads to a change in the conformation of the receptor resulting in Gi/Gq protein activation and intracellular signal cascade. This involves, inter alia, an intracellular Ca^2+ release. The test cell used was a Chem-1 cell line transfected with human CCR2 (ChemiSCREEN™ CCR2B Calcium-Optimized FLIPR Cell Line, Merck Millipore).
(§1) The test substances were dissolved in dimethyl sulphoxide (DMSO) at a concentration of 10 mM and serially diluted with DMSO in steps of 1:3.16 for a 10-point dose/activity analysis. According to the desired test concentrations, the substances were pre-diluted in Tyrode with 2 mM CaCl2 and 0.05% BSA.
The cells, cultivated in DMEM high glucose [supplemented with 10% FCS, 1 mM pyruvate, 15 mM HEPES, 500 μg/ml geniticin and non-essential amino acids (NEAA)], were sown at 5000 cells/25 μl in 384 well, μCLEAR/black cell culture plates from Greiner (#781092) and incubated at 37° C. for 24 h. The sowing medium consisted of DMEM high glucose [supplemented with 5% FCS, 1 mM pyruvate, 15 mM HEPES, 50 U/ml penicillin, 50 μg/ml streptomycin and non-essential amino acids (NEAA)]. The medium was then removed and the cells were charged for 60 min at 37° C. with Fluo-4 dye [25 μl Tyrode with 3 μM Fluo-4 AM (1 mM DMSO stock solution), 0.4 mg/ml Brilliant Black, 2.5 mM probenicid, 0.03% Pluronic F-127]. The cells were pre-incubated for 10 min with 10 μl of the test substances diluted in buffer, and 20 μl of agonist solution (MCP-1 in Tyrode with 0.05% BSA) were then added. MCP-1 was employed at the concentration which corresponds to the EC50 which had been determined in a preliminary test (usually about 5 nM). Ca^2+ release was monitored over a period of 120 s in 1 s increments in a proprietary fluorescence imaging reader. The molar concentration of the test substance which caused 50% inhibition of the MCP-1 effect (IC50) was determined using a 4-parameter logistic function (Hill function).

murine CCR2 = target: T2, murine CCR2 (Mus musculus, UniProt P51683); assay: Functional β-arrestin recruiting test with human MCP-1 (B-2a); type: cell-based; settings: U2OS β-arrestin cell line transfected with murine CCR2; agonist human MCP-1 at EC50 (about 3 nM)
T2 construct: host or cells: U2OS β-arrestin cell line
T2 sequence (P51683 whole entry): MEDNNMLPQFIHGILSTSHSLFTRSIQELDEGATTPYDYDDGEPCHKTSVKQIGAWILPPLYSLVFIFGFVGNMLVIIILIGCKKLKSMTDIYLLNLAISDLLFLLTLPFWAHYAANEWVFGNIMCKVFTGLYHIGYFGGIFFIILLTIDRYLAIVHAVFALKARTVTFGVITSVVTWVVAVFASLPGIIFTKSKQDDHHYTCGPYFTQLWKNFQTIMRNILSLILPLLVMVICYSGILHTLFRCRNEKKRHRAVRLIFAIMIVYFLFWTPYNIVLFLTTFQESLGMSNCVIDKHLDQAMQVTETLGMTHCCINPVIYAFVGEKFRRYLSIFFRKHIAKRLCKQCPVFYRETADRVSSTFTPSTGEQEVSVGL
Experimental: The antagonistic action of test substances on CCR2 was determined in a β-arrestin test. The PathHunter β-arrestin GPCR test system (DiscoveRx Corporation, Ltd.) is a cell-based functional method for detecting binding of β-arrestin to an activated receptor. The molecular basis is a β-galactosidase complementation measured by the enzymatic conversion of a chemiluminescent substrate. The test cell used was a U2OS β-arrestin cell line transfected with murine CCR2 (93-0543C3, DiscoveRx Corporation, Ltd.).
as §1
The cells, cultivated in MEM Eagle (supplemented with 10% FCS, 50 U/ml of penicillin, 50 μg/ml of streptomycin, 250 μg/ml of hygromycin and 500 μg/ml of geniticin), were sown at 2000 cells/25 μl in 384 well, μCLEAR/black cell culture plates from Greiner (#781092) and incubated at 37° C. for 24 h. The sowing medium consisted of Opti-MEM (supplemented with 1% FCS, 50 U/ml of penicillin and 50 μg/ml of streptomycin). The cells were pre-incubated for 10 min with 10 μl of the test substances diluted in buffer, and 10 μl of agonist solution [human MCP-1 (PeproTech, #300-04) in Tyrode with 0.05% BSA] were then added. The human MCP-1 was employed at the concentration which corresponds to the EC50 which had been determined in a preliminary test (usually about 3 nM). After 90 min of incubation at 37° C., the solution was removed, and recruitment of β-arrestin to CCR2 was detected with the aid of the PathHunter detection reagent (93-001, DiscoveRx Corporation, Ltd.) according to the instructions of the manufacturer. Luminescence was measured after an incubation time of 60 min using a proprietary luminescence imaging measuring instrument. The molar concentration of the test substance which caused 50% inhibition of the MCP-1 effect (IC50) was determined using a 4-parameter logistic function (Hill function).

SMILES	IC50 (human CCR2)	IC50 (murine CCR2)
Nc1nc(C(F)(F)F)c(Sc2ccc(Cl)c(Cl)c2)c(=O)[nH]1 [Example 15, 2-Amino-5-[(3,4-dichlorophenyl)sulphanyl]-6-(trifluoromethyl)pyrimidin-4(3H)-one]	2.3 nM	130 nM
NC(=O)Cc1nc(C(F)(F)F)c(Cc2ccc(Cl)c(Cl)c2)c(=O)[nH]1 [Example 50]	65 nM	460 nM
NC(=O)Cc1nc(C(F)(F)F)c(Cc2ccc(C(F)(F)F)c(Cl)c2)c(=O)[nH]1 [Example 35, 2-{5-[3-Chloro-4-(trifluoromethyl)benzyl]-6-oxo-4-(trifluoromethyl)-1,6-dihydropyrimidin-2-yl}acetamide]	150 nM	3700 nM
O=c1[nH]c(C2CC2)nc(C(F)(F)F)c1Cc1ccc(Cl)c(C(F)(F)F)c1 [Example 27, 5-[4-chloro-3-(trifluoromethyl)benzyl]-2-cyclopropyl-6-(trifluoromethyl)pyrimidin-4(3H)-one]	63 nM	360 nM
Nc1nc(C(F)(F)F)c(Oc2ccc(F)c(Cl)c2)c(=O)[nH]1 [Example 4, 2-amino-5-(3-chloro-4-fluorophenoxy)-6-(trifluoromethyl)pyrimidin-4(3H)-one]	6.5 nM	220 nM
O=c1[nH]c(C2CC2)nc(C(F)(F)F)c1Cc1ccc(Cl)c(Cl)c1 [Example 30, 2-cyclopropyl-5-(3,4-dichlorobenzyl)-6-(trifluoromethyl)pyrimidin-4(3H)-one]	100 nM	550 nM
CCc1nc(C(F)(F)F)c(Oc2ccc(Cl)c(Cl)c2)c(=O)[nH]1 [Example 33, 5-(3,4-dichlorophenoxy)-2-ethyl-6-(trifluoromethyl)pyrimidin-4(3H)-one]	15 nM	74 nM
CN(C)c1nc(C(F)(F)F)c(Oc2ccc(Cl)c(Cl)c2)c(=O)[nH]1 [Example 67]	55 nM	1000 nM
NC(=O)Nc1nc(C(F)(F)F)c(Cc2ccc(Cl)c(Cl)c2)c(=O)[nH]1 [Example 56, 1-[5-(3,4-Dichlorobenzyl)-6-oxo-4-(trifluoromethyl)-1,6-dihydropyrimidin-2-yl]urea]	17 nM	330 nM
O=c1[nH]c(C2CC2)nc(C(F)(F)F)c1Cc1cccc(Cl)c1 [Example 21, 5-(3-chlorobenzyl)-2-cyclopropyl-6-(trifluoromethyl)pyrimidin-4(3H)-one]	230 nM	590 nM
NC(=O)Cc1nc(C(F)(F)F)c(Oc2ccc(Cl)c(Cl)c2)c(=O)[nH]1 [Example 46]	20 nM	440 nM
CCc1nc(C(F)(F)F)c(Cc2ccc(C(F)(F)F)c(Cl)c2)c(=O)[nH]1 [Example 19, 5-[3-Chloro-4-(trifluoromethyl)benzyl]-2-ethyl-6-(trifluoromethyl)pyrimidin-4(3H)-one]	63 nM	980 nM
NC(=O)Cc1nc(C(F)(F)F)c(Cc2ccc(Cl)c(C(F)(F)F)c2)c(=O)[nH]1 [Example 48]	31 nM	300 nM
NC(=O)Cc1nc(C(F)(F)F)c(Oc2ccc(Cl)c(F)c2)c(=O)[nH]1 [Example 39]	160 nM	1800 nM
CCc1nc(C(F)(F)F)c(Cc2ccc(F)c(Cl)c2)c(=O)[nH]1 [Example 28, 5-(3-chloro-4-fluorobenzyl)-2-ethyl-6-(trifluoromethyl)pyrimidin-4(3H)-one]	44 nM	290 nM
O=c1[nH]c(CO)nc(C(F)(F)F)c1Oc1ccc(Cl)c(F)c1 [Example 55]	6.2 nM	120 nM

SMILES	IC50 (human CCR2)	IC50 (murine CCR2)
O=c1[nH]c(CO)nc(C(F)(F)F)c1Cc1ccc(Cl)c(Cl)c1 [Example 51, 5-(3,4-Dichlorobenzyl)-2-(hydroxymethyl)-6-(trifluoromethyl)pyrimidin-4(3H)-one]	14 nM	230 nM
O=c1[nH]c(CO)nc(C(F)(F)F)c1Oc1ccc(F)c(Cl)c1 [Example 52]	7.8 nM	140 nM
Nc1nc(C(F)(F)F)c(Oc2cccc(Cl)c2)c(=O)[nH]1 [Example 9, 2-amino-5-(3-chlorophenoxy)-6-(trifluoromethyl)pyrimidin-4(3H)-one]	38 nM	450 nM
O=c1[nH]c(C2CC2)nc(C(F)(F)F)c1Cc1ccc(C(F)(F)F)c(Cl)c1 [Example 24, 5-[3-chloro-4-(trifluoromethyl)benzyl]-2-cyclopropyl-6-(trifluoromethyl)pyrimidin-4(3H)-one]	270 nM	1900 nM
CCc1nc(C(F)(F)F)c(Cc2ccc(Cl)c(F)c2)c(=O)[nH]1 [Example 32, 5-(4-chloro-3-fluorobenzyl)-2-ethyl-6-(trifluoromethyl)pyrimidin-4(3H)-one]	220 nM	540 nM
Nc1nc(C(F)(F)F)c(Oc2ccc(F)c(C(F)(F)F)c2)c(=O)[nH]1 [Example 6, 2-amino-5-[4-fluoro-3-(trifluoromethyl)phenoxy]-6-(trifluoromethyl)pyrimidin-4(3H)-one]	5.4 nM	150 nM
CCc1nc(C(F)(F)F)c(Cc2ccc(Cl)c(Cl)c2)c(=O)[nH]1 [Example 31, 5-(3,4-dichlorobenzyl)-2-ethyl-6-(trifluoromethyl)pyrimidin-4(3H)-one]	120 nM	220 nM
NC(=O)Cc1nc(C(F)(F)F)c(Oc2cccc(Cl)c2)c(=O)[nH]1 [Example 38]	320 nM	3300 nM
NC(=O)Cc1nc(C(F)(F)F)c(Oc2ccc(F)c(F)c2)c(=O)[nH]1 [Example 37]	480 nM	3800 nM
CCCCc1nc(C(F)(F)F)c(Cc2ccc(Cl)c(Cl)c2)c(=O)[nH]1 [Example 22, 2-butyl-5-(3,4-dichlorobenzyl)-6-(trifluoromethyl)pyrimidin-4(3H)-one]	110 nM	740 nM
Nc1nc(C(F)(F)F)c(Sc2ccc(Cl)c(C(F)(F)F)c2)c(=O)[nH]1 [Example 17, 2-amino-5-{[4-chloro-3-(trifluoromethyl)phenyl]sulphanyl}-6-(trifluoromethyl)pyrimidin-4(3H)-one]	4.1 nM	160 nM
O=c1[nH]c(CO)nc(C(F)(F)F)c1Oc1cccc(Cl)c1 [Example 54]	10 nM	140 nM
NC(=O)Cc1nc(C(F)(F)F)c(Cc2cccc(Cl)c2)c(=O)[nH]1 [Example 43]	270 nM	880 nM
NC(=O)Cc1nc(C(F)(F)F)c(Oc2ccc(F)c(Cl)c2)c(=O)[nH]1 [Example 36]	110 nM	1600 nM
Nc1nc(C(F)(F)F)c(Cc2ccc(Cl)c(F)c2)c(=O)[nH]1 [Example 13, 2-amino-5-(4-chloro-3-fluorobenzyl)-6-(trifluoromethyl)pyrimidin-4(3H)-one]	69 nM	330 nM
